Tests used:
Human recombinant FAP [1] = molecular target: T1, Human recombinant FAP (Homo sapiens, UniProt Q12884); assay: FRET-based FAP protease activity assay (human); format: biochemical; set-up: purchased R&D systems 3715-SE; settings: FRET-peptide substrate, 37°C; for IC50: read-out: pIC50 (Activity) (converted)
T1 sequence (Q12884 1-760): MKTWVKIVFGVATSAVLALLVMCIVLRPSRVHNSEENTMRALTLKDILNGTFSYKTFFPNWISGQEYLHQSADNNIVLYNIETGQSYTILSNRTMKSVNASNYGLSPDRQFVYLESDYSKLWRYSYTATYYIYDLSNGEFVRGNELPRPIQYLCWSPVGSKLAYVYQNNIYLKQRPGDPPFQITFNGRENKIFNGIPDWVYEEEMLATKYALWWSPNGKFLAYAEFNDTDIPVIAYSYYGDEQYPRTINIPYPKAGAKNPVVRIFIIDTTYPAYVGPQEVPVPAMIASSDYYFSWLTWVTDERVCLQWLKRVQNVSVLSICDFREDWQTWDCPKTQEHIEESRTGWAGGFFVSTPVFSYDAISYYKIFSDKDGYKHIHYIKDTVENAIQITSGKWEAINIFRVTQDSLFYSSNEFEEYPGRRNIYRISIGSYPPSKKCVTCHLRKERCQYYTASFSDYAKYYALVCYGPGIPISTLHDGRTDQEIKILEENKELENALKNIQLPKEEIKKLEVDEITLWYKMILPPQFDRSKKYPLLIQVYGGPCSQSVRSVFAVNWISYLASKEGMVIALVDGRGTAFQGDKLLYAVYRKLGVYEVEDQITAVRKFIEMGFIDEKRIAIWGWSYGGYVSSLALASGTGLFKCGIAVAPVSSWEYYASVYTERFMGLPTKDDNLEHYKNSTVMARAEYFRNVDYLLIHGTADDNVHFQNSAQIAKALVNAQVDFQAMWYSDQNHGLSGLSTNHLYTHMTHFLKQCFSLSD
Method: (§1) In order to determine the inhibitory activity a FRET-based FAP protease activity assay was established.
25 µL of a 30 µM substrate solution, diluted in assay buffer, was added. […] Four parameter logistic (4PL) curve fitting and pIC50 calculations were performed using ActivityBase software (IDBS).

[2] = molecular target: T2, FAP-expressing human WI-38 fibroblasts (Homo sapiens, UniProt Q12884); assay: Competitive FACS binding assay (displacement of Cy5-labeled FAP inhibitor 3BP-2935); settings: 3 nM Cy5-labeled 3BP-2935, 4°C, 1 hour
T2 construct: FAP-expressing human WI-38 fibroblasts (ECACC 90020107) were cultured in EMEM; host or cells: WI-38 human fibroblasts
T2 sequence (Q12884 1-760): T1 sequence (Q12884 1-760)
Method: In order to determine binding of compounds according to the present invention to FAP-expressing cells, a competitive FACS binding assay was established.
Cells were diluted in FACS buffer to a final concentration of 100.000 cells per ml and 200 µl of the cell suspension are transferred to a u-shaped non-binding 96-well plate (Greiner).
Cell were washed twice with FACS buffer (see above) and resuspended in 200 µl FACS buffer. Cells were analyzed in an Attune NxT flow cytometer (Thermo Fisher Scientific). Median fluorescence intensities (Cy5 channel) was calculated by Attune NxT software and plotted against test compound concentrations. Four parameter logistic (4PL) curve fitting and pIC50 calculations were performed using ActivityBase software.

Recombinant mouse FAP = molecular target: T3, Recombinant mouse FAP (Mus musculus, UniProt P97321); assay: FRET-based FAP protease activity assay (mouse); format: biochemical; settings: FRET-peptide substrate, 37°C; for IC50: read-out: pIC50 (mouseFAP) (converted)
T3 construct: purchased R&D systems 8647-SE
T3 sequence (P97321 1-761): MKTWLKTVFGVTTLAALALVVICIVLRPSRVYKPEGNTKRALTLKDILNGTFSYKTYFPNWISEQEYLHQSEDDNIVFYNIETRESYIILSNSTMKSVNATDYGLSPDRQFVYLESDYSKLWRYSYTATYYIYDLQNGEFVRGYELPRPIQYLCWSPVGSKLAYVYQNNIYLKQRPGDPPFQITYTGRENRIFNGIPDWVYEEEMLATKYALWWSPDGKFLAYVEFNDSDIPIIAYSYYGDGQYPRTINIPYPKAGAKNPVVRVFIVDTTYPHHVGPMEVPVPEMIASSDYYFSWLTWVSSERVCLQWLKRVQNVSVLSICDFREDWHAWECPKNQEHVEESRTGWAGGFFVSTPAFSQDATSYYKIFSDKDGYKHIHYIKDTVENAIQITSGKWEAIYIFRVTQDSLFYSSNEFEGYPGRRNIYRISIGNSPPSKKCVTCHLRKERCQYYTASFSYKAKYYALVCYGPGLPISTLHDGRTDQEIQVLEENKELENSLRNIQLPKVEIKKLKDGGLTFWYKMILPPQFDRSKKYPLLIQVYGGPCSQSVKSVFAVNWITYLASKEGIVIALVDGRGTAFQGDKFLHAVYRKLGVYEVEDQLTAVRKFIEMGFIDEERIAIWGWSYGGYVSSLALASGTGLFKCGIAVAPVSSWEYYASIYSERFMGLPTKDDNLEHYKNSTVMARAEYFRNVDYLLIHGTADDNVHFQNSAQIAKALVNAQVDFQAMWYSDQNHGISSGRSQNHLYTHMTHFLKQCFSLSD
Method: as §1
25 µL of a 30 µM substrate solution, diluted in assay buffer, was added. […] Four parameter logistic (4PL) curve fitting and pIC50 calculations were performed using ActivityBase software.

Recombinant human DPP4 = molecular target: T4, Recombinant human DPP4 (Homo sapiens, UniProt P27487); assay: DPP4 protease activity assay; format: biochemical; settings: 20 µM GP-AMC substrate; for IC50: read-out: pIC50 (DPP4) (converted)
T4 construct: purchased R&D systems 9168-SE
Method: (§2) The PREP activity assay was performed using the FACS buffer (PBS including 1% FBS, Sigma-Aldrich, Cat# D8537). […] The DPP4 activity assay was performed in DPP assay buffer (25 mM Tris, pH 8.0).
(§3) Four parameter logistic (4PL) curve fitting and pIC50 calculations were performed using ActivityBase software.

Human recombinant FAP [3] = molecular target: T1, Human recombinant FAP; assay: Surface plasmon resonance assay (Biacore T200, single cycle kinetics); format: binding; settings: SPR, 25°C; for pKD (Biacore): 1:1 Langmuir binding model; for HL [min] (Biacore): half-life
Method: Surface plasmon resonance studies were performed using a Biacore™ T200 SPR system (Cytiva, formerly GE Healthcare). Briefly, polarized light is directed towards a gold-labeled sensor surface, and minimum intensity reflected light is detected. The angle of reflected light changes as molecules bind and dissociate. […] Test compounds are contacted with the loaded surface, and a real-time interaction profile with the FAP ligand is recorded in a sensorgram. In real-time, the association and dissociation of a binding interaction is measured, enabling calculation of association and dissociation rate constants and the corresponding affinity constants. Importantly, a background response is generated due to the difference in the refractive indices of the running and sample buffers, as well as unspecific binding of the test compounds to the flow cell surface. This background is measured and subtracted by running the sample on a control flow cell coated with the same density of capture antibody in the absence of immobilized FAP. Furthermore, baseline drift correction of the binding data is performed, which is caused by slow dissociation of the captured FAP from the immobilized antibody. This drift is measured by injecting running buffer through a flow cell with the antibody and FAP immobilized to the sensor surface.
Biacore™ CM5 sensor chips were used. […] A 150 µL aliquot was transferred into plastic vials and placed into the sample rack of the Biacore™ T200 instrument. Amine Coupling Kit Reagent solutions were transferred into plastic vials and placed into the sample rack: 90 µL of 0.4 M 1-ethyl-3-(3-dimethylaminopropyl)carbodiimide (EDC), and 90 µL of 0.1 M N-hydroxysuccinimide (NHS). A 130 µL aliquot of 1 M ethanolamine-HCl, pH 8.5, was transferred into plastic vials and placed into the sample rack. The Biacore™ liquid system was set-up as follows: Separate bottles containing distilled water (1 L), Running Buffer (500 mL), as well as an empty bottle for waste were placed onto the buffer tray. A preinstalled program for immobilization was used, with an immobilization level of 7000 RU. Immobilization was performed at 25°C. The immobilization procedure of anti-FAP antibodies was performed, as described in the Table 5. Table 5: Immobilization protocol for anti-FAP antibodies used on the CM5 sensor chip.
Human recombinant FAP was diluted in Running Buffer to a final concentration of 20 µg/mL. A 100 µL aliquot of human FAP-Working-Solution was transferred into plastic vials and placed into a sample rack. A 0.5 mM Compound-Stock-Solution was prepared by dissolving each compound in DMSO. For each test compound, Compound-Stock-Solutions were diluted in Running Buffer (HBST) at 500 nM and further diluted with HBST-DMSO Buffer (0.1% DMSO). SPR binding analyses for binary complexes were performed in SCK mode at 25°C. Following three SCK measurements, a baseline drift was assessed by injecting running buffer through a flow cell, with the antibody and FAP immobilized to the sensor surface. Table 6: Protocol for assessing the binding kinetics.
For each test compound, SPR raw data in the form of resonance units (RU) were plotted as sensorgrams using the Biacore™ T200 control software. The signal from the blank sensorgram was subtracted from that of the test compound sensorgram (blank corrected). The blank corrected sensorgram was corrected for baseline drift by subtracting the sensorgram of a SCK run without the test compound (running buffer only). The association rate (kon), dissociation rate (koff), dissociation constant (KD), and t1/2 were calculated from Blank-normalized SPR data using the 1:1 Langmuir binding model from the Biacore™ T200 evaluation software. Raw data and fit results were imported as text files in IDBS. The pKD value (negative decadic logarithm of dissociation constant) was calculated in the IDBS excel template.

recombinant human PREP = molecular target: T5, recombinant human PREP (Homo sapiens, UniProt P48147); assay: PREP protease activity assay; format: biochemical; settings: 50 µM Z-GP-AMC substrate
T5 construct: purchased R&D systems 4308-SE
T5 sequence (P48147 1-710): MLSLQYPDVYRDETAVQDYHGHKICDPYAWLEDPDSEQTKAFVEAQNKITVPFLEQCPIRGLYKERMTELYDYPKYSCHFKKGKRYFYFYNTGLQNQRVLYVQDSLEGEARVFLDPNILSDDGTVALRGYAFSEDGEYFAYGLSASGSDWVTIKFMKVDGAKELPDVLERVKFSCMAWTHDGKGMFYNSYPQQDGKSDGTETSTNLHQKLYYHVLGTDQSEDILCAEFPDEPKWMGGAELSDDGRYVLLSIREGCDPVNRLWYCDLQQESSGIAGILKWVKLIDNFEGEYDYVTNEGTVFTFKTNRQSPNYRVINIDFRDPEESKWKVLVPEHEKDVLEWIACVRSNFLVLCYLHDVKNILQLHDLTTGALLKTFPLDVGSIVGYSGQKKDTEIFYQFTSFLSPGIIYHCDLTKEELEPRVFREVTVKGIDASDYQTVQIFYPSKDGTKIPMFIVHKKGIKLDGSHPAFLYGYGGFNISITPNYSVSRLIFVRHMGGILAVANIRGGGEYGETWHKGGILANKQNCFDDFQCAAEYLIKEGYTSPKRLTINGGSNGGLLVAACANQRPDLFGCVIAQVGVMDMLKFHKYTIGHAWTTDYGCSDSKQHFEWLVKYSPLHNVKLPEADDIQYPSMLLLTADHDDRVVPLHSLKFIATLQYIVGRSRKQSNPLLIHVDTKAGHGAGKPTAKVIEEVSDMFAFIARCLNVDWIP
Method: as §2, §3

T4 sequence (P27487 whole entry): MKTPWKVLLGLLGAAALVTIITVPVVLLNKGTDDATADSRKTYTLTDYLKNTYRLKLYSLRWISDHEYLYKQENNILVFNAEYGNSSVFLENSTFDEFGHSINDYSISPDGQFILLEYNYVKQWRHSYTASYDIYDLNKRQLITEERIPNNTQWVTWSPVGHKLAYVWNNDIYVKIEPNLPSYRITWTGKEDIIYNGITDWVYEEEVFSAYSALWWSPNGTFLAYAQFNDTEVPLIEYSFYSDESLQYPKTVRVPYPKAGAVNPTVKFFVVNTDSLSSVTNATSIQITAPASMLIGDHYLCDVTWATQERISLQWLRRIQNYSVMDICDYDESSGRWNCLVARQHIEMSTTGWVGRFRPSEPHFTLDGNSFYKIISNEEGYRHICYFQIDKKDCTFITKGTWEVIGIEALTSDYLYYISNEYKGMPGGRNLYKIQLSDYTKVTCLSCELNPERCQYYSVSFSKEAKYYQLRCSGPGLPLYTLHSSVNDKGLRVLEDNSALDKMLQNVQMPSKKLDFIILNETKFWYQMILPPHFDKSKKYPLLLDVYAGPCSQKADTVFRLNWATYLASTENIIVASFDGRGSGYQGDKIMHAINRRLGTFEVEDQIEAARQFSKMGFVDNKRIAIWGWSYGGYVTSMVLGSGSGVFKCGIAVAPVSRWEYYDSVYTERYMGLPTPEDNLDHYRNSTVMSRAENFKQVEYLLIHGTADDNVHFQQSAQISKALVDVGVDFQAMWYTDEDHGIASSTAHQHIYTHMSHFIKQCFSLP

Structure (SMILES)	IC50 (Human recombinant FAP [1]) [nM]	IC50 [2] [nM]	IC50 (Recombinant mouse FAP) [nM]	IC50 (Recombinant human DPP4) [nM]	pIC50 (Activity) (Human recombinant FAP [1])	pIC50 (FACS) [2]	IC50 (recombinant human PREP) [nM]	pKD (Biacore) (Human recombinant FAP [3])	HL [min] (Biacore) (Human recombinant FAP [3])	pIC50 (mouseFAP) (Recombinant mouse FAP)	pIC50 (DPP4) (Recombinant human DPP4)
CS(=O)(=O)c1cc(F)c(-c2ccc3nccc(C(=O)NCC(=O)N4CCC[C@H]4C#N)c3c2)c(F)c1	0.501	3.16	1	> 1000	–	–	–	–	–	–	–
CN(CCCN1CCN(C(=O)CN2CCN(CC(=O)O)CCN(CC(=O)O)CCN(CC(=O)O)CC2)CC1)c1ccc2nccc(C(=O)NCC(=O)N3CC(F)(F)C[C@H]3C#N)c2c1	–	–	–	–	8.9	9	–	>11	>500	8.6	–
N#C[C@@H]1CCCN1C(=O)CNC(=O)c1ccnc2cc(-c3ccc(C(=O)O)cc3)ccc12	2	3.98	–	> 1000	–	–	> 1000	–	–	–	–
N#C[C@@H]1CCCN1C(=O)CNC(=O)c1ccnc2ccc(-c3ccc(C(=O)NCCCN(CC(=O)O)C(=O)CN4CCN(CC(=O)O)CCN(CC(=O)O)CCN(CC(=O)O)CC4)cc3)cc12	–	–	–	–	–	–	–	>11	>500	8.9	<6
N#C[C@@H]1CC(F)(F)CN1C(=O)CNC(=O)c1ccnc2ccc(OCCCN3CCN(C(=O)CN4CCN(CC(=O)O)CCN(CC(=O)O)CCN(CC(=O)O)CC4)CC3)cc12 [drawing 287]	–	–	–	–	–	–	–	–	>500	8.8	<6
N#C[C@@H]1CC(F)(F)CN1C(=O)CNC(=O)c1cc[n+]([O-])c2ccc(-c3ccc(S(=O)(=O)CCCNC(=O)CN4CCN(CC(=O)O)CCN(CC(=O)O)CCN(CC(=O)O)CC4)cc3)cc12	–	–	–	–	–	–	–	>11	110	9.1	7
N#C[C@@H]1CCCN1C(=O)CNC(=O)c1ccnc2ccc(-c3cccc(C(=O)O)c3)cc12	1.58	3.16	–	> 1000	–	–	> 1000	–	–	–	–

Second part, led by results:

IC50 (Human recombinant FAP [1]) [nM]	IC50 [2] [nM]	IC50 (Recombinant mouse FAP) [nM]	IC50 (Recombinant human DPP4) [nM]	pIC50 (Activity) (Human recombinant FAP [1])	pIC50 (FACS) [2]	IC50 (recombinant human PREP) [nM]	Structure (SMILES)	pKD (Biacore) (Human recombinant FAP [3])	HL [min] (Biacore) (Human recombinant FAP [3])	pIC50 (mouseFAP) (Recombinant mouse FAP)	pIC50 (DPP4) (Recombinant human DPP4)
3.16	50.1	10	> 1000	–	–	–	CS(=O)(=O)c1ccc(-c2ccc3nccc(C(=O)NCC(=O)N4C[C@H](F)C[C@H]4C#N)c3c2)cc1	–	–	–	–
0.631	1.58	0.631	> 1000	–	–	–	CS(=O)(=O)c1ccc(-c2ccc3nccc(C(=O)NCC(=O)N4C[C@@H](F)C[C@H]4C#N)c3c2)cc1	–	–	–	–
0.501	2	1.58	794	–	–	–	Cc1cc(S(C)(=O)=O)ccc1-c1ccc2nccc(C(=O)NCC(=O)N3CC(F)(F)C[C@H]3C#N)c2c1	–	–	–	–
0.631	12.6	1.26	> 1000	–	–	–	Cc1cc(S(C)(=O)=O)ccc1-c1ccc2nccc(C(=O)NCC(=O)N3CCC[C@H]3C#N)c2c1	–	–	–	–

— patent EP4122499A1, “FIBROBLAST ACTIVATION PROTEIN INHIBITORS AND USE THEREOF” (3B Pharmaceuticals GmbH, priority 2021, dated 2023)
